Reference: paper PMC8566969, “Comparison of viral RNA–host protein interactomes across pathogenic RNA viruses informs rapid antiviral drug discovery for SARS-CoV-2” (Cell Research, 2021)
Read-outs that look alike come from different tables or passages of the source.

Experiments:
[1] = tested on: SARS-CoV-2 B.1.351 variant; assay: microbe, parasite or virus in culture; conditions: Severe acute respiratory syndrome coronavirus 2, A549-ACE2, 48 h, read-out: IC50, SARS-CoV-2 B.1.351
[2] = tested on: SARS-CoV-2 B.1.351 variant
[3] = tested on: SARS-CoV-2 B.1.351 variant; assay: microbe, parasite or virus in culture; format: cell-based; conditions: Severe acute respiratory syndrome coronavirus 2, Huh-7.5.1, 48 h, read-out: IC50, SARS-CoV-2 B.1.351 in Huh7.5.1 cells

## COc1cc2c(cc1OC)[C@@H]1C(=O)c3ccc4c(c3O[C@@H]1CO2)C=CC(C)(C)O4 [Deguelin]
[1]
  IC50: 4670 nM
[2]
  Inhibitory effect in B.1.351-infected cells (in words): exerted inhibitory effects
  SI (CC50/IC50), SARS-CoV-2 B.1.351: 7.44

## CNC(=O)c1cc(Oc2ccc(NC(=O)Nc3ccc(Cl)c(C(F)(F)F)c3)cc2)ccn1 [Sorafenib]
[1]
  IC50: 1700 nM
[2]
  Inhibitory effect in B.1.351-infected cells (in words): exerted inhibitory effects
  SI (CC50/IC50), SARS-CoV-2 B.1.351: 7.6

## CN1CCN(CCCN2c3ccccc3Sc3ccc(C(F)(F)F)cc32)CC1 [Trifluoperazine]
[1]
  IC50: 2790 nM
[2]
  Inhibitory effect in B.1.351-infected cells (in words): exerted inhibitory effects
  SI (CC50/IC50), SARS-CoV-2 B.1.351: 13.25

## COc1ccc2cc1Oc1ccc(cc1)C[C@H]1c3c(cc4c(c3Oc3cc5c(cc3OC)CCN(C)[C@@H]5C2)OCO4)CCN1C [Cepharanthine]
[1]
  IC50: 240 nM
[3]
  IC50: 60 nM
[2]
  Inhibitory effect in B.1.351-infected cells (in words): exerted inhibitory effects
  SI (CC50/IC50), SARS-CoV-2 B.1.351: 128.83
